Experiment: Inhibition of wild type recombinant Mycobacterium tuberculosis PTPB using p-nitrophenyl phosphate as substrate preincubated for 10 mins followed by substrate addition measured for 10 mins by UV-VIS spectrophotometer

CC(C)=CCc1c(O)ccc(C(=O)[C@@H]2[C@@H](c3ccc(O)cc3O)CC(C)=C[C@H]2c2c(O)cc(/C=C/c3ccc(O)cc3O)cc2O)c1O
Ki: 1.6 µM

Reference: ChEMBL document CHEMBL4000157, “Total Synthesis of (±)-Kuwanol E” (J Nat Prod, 2016)
